In patent publication US12371428B2 (Exelixis, Inc., priority 2019, dated 2025):
Where a name gives a salt, the structure may show the parent alone. Read-outs that look alike come from different tables or passages of the source.

How the values were obtained:
[1] = biological target: Human MET (residues 956-1390) (Homo sapiens (Human), UniProt P08581); test: Human Met kinase assay, HTRF KinEase (Example D-2); type: biochemical; details: read-out: c-Met IC50
How it was run: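 IC50 values come from a 4-parameter logistic fit of the […] fluorescence ratio, set between DMSO (100%) and reference compound at 1 μM (0%). Reactions held MET 956-1390 at 0.1 ng/well, ATP at Km, biotinylated peptide, 5 mM MgCl2, 1 mM MnCl2, 1 mM DTT and 3% DMSO, and ran 40 min at room temperature before streptavidin-XL665/Eu-antibody detection.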

[2] = biological target: Human KDR (residues 790-1356) (Homo sapiens (Human), UniProt P35968); test: Human KDR kinase assay, HTRF KinEase (Example B-2); type: biochemical
Chain of Human KDR (residues 790-1356) (P35968 790-1356): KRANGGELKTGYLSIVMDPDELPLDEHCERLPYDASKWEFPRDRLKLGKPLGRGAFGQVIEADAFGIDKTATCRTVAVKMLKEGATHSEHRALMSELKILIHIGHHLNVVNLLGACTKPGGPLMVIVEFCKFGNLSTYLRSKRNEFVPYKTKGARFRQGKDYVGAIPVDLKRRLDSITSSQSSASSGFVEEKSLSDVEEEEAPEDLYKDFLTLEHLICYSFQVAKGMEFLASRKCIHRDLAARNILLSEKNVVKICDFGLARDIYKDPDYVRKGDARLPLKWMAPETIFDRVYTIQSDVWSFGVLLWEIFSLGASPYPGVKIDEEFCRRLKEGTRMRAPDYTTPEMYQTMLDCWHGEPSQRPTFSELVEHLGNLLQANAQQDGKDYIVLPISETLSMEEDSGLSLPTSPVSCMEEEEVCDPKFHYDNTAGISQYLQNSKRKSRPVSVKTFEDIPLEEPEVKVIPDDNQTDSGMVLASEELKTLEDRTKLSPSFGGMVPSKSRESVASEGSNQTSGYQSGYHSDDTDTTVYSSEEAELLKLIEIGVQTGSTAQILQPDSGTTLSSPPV
How it was run: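 Ten compound concentrations (3% DMSO final) were pre-plated, then KDR (790-1356) with biotinylated peptide in Mg/Mn/DTT buffer was added; ATP at Km (4.0 μM) started a 40 min room-temperature reaction. Detection used Eu-TK antibody and SA-XL665 in EDTA buffer; activity normalized to DMSO and reference inhibitor, IC50 by logistic fit.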

[3] = biological target: Mer (phospho-Mer, MERTK-transfected 293A cells) (Homo sapiens (Human), UniProt Q12866); test: Mer autophosphorylation ELISA in transient transfected 293A cells (Example H); type: cell-based; details: cellular activity; Mer autophosphorylation ELISA in transient transfected 293A cells
Chain of Mer (phospho-Mer, MERTK-transfected 293A cells) (Q12866 21-999): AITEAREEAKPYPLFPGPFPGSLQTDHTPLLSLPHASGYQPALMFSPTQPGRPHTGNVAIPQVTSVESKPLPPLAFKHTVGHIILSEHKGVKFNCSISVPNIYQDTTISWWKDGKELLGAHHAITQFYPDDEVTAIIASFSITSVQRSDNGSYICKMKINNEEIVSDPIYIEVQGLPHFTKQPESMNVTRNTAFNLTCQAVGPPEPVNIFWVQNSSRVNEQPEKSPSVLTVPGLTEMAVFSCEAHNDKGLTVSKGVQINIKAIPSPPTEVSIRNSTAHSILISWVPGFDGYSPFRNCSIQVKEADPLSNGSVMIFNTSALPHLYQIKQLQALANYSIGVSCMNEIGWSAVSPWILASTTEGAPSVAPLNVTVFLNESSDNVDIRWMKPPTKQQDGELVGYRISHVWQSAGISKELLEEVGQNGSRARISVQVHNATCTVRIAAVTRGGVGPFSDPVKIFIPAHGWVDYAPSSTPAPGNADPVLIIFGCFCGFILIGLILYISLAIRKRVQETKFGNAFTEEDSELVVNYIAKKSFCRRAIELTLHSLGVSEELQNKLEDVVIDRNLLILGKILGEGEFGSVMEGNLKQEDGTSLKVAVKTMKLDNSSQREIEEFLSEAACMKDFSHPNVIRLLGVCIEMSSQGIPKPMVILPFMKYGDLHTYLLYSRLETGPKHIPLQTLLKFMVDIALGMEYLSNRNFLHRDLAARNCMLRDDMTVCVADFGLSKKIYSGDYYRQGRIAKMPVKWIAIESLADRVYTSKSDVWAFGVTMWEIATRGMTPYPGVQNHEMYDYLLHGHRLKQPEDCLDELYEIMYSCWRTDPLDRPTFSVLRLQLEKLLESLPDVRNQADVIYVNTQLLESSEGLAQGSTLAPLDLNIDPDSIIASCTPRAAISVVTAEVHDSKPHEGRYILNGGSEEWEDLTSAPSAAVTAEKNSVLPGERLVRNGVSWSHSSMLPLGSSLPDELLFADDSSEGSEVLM
How it was run: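 IC50 from 4-parameter logistic fit of phospho-Mer levels, quantified by ELISA against a phospho-Mer standard in lysates of MERTK-transfected 293A cells. Cells exposed 1 h to 8-point serial dilutions, serum-free, 0.3% DMSO; controls: DMSO (100%) and reference inhibitor (0%).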

[4] = biological target: Human MER (residues 528-999) (Homo sapiens (Human), UniProt Q12866); test: Human Mer kinase assay, HTRF KinEase (Example C-2); type: biochemical
Chain of Human MER (residues 528-999) (Q12866 528-999): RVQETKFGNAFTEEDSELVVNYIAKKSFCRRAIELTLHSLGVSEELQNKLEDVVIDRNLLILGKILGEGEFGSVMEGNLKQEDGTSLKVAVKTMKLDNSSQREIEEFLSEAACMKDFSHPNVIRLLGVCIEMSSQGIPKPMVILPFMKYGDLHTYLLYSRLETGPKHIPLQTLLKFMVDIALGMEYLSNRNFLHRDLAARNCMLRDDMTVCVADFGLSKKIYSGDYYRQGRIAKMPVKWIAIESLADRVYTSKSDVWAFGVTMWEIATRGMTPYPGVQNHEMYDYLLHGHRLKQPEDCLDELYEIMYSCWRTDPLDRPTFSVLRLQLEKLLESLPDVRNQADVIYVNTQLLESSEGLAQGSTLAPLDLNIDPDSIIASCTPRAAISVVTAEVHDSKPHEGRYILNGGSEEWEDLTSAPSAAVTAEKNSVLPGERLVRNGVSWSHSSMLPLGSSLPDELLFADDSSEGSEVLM
How it was run: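 IC50 values from 10 concentrations via 4-parameter logistic fit of […], with DMSO as 100% and 1 μM reference compound as 0% activity. Reaction: MER kinase domain 528-999, 1 ng/well, 40 μM ATP (Km), biotin peptide, 5 mM MgCl2, 1 mM DTT, 3% DMSO, room temperature 60 min; HTRF streptavidin-XL665/Eu-antibody detection.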

[5] = protocol of Example D-2 (other compounds)
[6] = protocol of Example B-2 (other compounds)
[7] = protocol of Example C-2 (other compounds)

Chain of Human MET (residues 956-1390) (P08581 956-1390): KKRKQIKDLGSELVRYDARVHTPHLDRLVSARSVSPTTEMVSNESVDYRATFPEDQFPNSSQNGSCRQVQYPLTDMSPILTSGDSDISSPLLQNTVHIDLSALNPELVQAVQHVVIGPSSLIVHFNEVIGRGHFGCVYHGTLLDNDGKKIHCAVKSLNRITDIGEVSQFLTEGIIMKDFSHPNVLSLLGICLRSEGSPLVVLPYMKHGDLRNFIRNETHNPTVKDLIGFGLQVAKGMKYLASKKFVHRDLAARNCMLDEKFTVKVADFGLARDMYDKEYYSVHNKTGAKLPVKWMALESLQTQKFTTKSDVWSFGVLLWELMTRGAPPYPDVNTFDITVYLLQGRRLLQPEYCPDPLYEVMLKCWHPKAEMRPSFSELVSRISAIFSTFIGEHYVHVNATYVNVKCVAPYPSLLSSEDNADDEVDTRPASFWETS

SMILES | IC50 [1, 5] [nM] | IC50 [2, 6] [nM] | IC50 [3] [nM] | IC50 [4, 7] [nM] | IC50 ([1]; protocol of Example D-2) [nM] | IC50 ([2]; protocol of Example B-2) [nM] | IC50 ([4]; protocol of Example C-2) [nM]
COc1cc2nccc(Oc3ccc(NC(=O)c4cn(C(C)(C)C)c(C)c(-c5ccc(F)cc5)c4=O)cc3F)c2nc1OC [Compound 139, 1-tert-Butyl-N-[4-[(6,7-dimethoxy-1,5-naphthyridin-4-yl)oxy]-3-fluorophenyl]-5-(4-fluorophenyl)-6-methyl-4-oxopyridine-3-carboxamide] | < 100 | > 300 | < 100 | < 100 |  |  | 
COc1cc2nccc(Oc3ccc(NC(=O)c4cn(OC)cc(-c5ccc(F)cc5)c4=O)cc3F)c2nc1OC [Compound 126, N-[4-[(6,7-Dimethoxy-1,5-naphthyridin-4-yl)oxy]-3-fluorophenyl]-5-(4-fluorophenyl)-1-methoxy-4-oxopyridine-3-carboxamide] | < 100 | < 100 | < 100 | < 100 |  |  | 
COc1cnc2c(Oc3ccc(NC(=O)c4cncc(-c5ccc(F)cc5)c4O)cc3)ccnc2c1 [Compound 146, 5-(4-Fluorophenyl)-4-hydroxy-N-[4-[(7-methoxy-1,5-naphthyridin-4-yl)oxy]phenyl]pyridine-3-carboxamide] | < 100 | < 100 | < 100 | < 100 |  |  | 
COc1cc2nccc(Oc3ccc(NC(=O)c4cnc(C)c(-c5ccc(F)cc5)c4O)cc3F)c2nc1Br [Compound 142, N-[4-[(6-Bromo-7-methoxy-1,5-naphthyridin-4-yl)oxy]-3-fluorophenyl]-5-(4-fluorophenyl)-4-hydroxy-6-methylpyridine-3-carboxamide] | < 100 | < 100 | < 100 | < 100 |  |  | 
CCn1nc(C(=O)Nc2ccc(Oc3ccnc4cc(OC)c(OC)nc34)c(F)c2)c(=O)c(-c2ccc(F)cc2)c1C [Compound 568, N-[4-[(6,7-Dimethoxy-1,5-naphthyridin-4-yl)oxy]-3-fluorophenyl]-1-ethyl-5-(4-fluorophenyl)-6-methyl-4-oxopyridazine-3-carboxamide] |  |  | < 100 |  | < 100 | < 100 | < 100
COc1cnc2c(Oc3ccc(NC(=O)c4cnc(C)c(-c5ccc(F)cc5C)c4O)cc3F)ccnc2c1 [Compound 175, N-[3-Fluoro-4-[(7-methoxy-1,5-naphthyridin-4-yl)oxy]phenyl]-5-(4-fluoro-2-methylphenyl)-4-hydroxy-6-methylpyridine-3-carboxamide] | < 100 | 100 to 300 | < 100 | < 100 |  |  | 
Cc1c(-c2ccc(F)cc2)c(=O)c(C(=O)Nc2ccc(Oc3ccnc4cc(F)cnc34)c(F)c2)cn1C(C)C [Compound 162, N-[3-Fluoro-4-[(7-fluoro-1,5-naphthyridin-4-yl)oxy]phenyl]-5-(4-fluorophenyl)-6-methyl-4-oxo-1-propan-2-ylpyridine-3-carboxamide] | < 100 | > 300 | < 100 | 100 to 300 |  |  | 
Cc1ncc(C(=O)Nc2ccc(Oc3ccnc4cnc(Cl)cc34)c(F)c2)c(O)c1-c1ccc(F)cc1 [Compound 641, N-[4-[(6-chloro-1,7-naphthyridin-4-yl)oxy]-3-fluorophenyl]-5-(4-fluorophenyl)-4-hydroxy-6-methylpyridine-3-carboxamide] |  |  | < 100 |  | 100 to 300 | > 300 | < 100
Cc1ncc(C(=O)Nc2ccc(Oc3ccnc4cc(-c5cnn(C(F)F)c5)cnc34)cc2)c(O)c1-c1ccc(F)cc1 [Compound 611, N-[4-[[7-[1-(Difluoromethyl)pyrazol-4-yl]-1,5-naphthyridin-4-yl]oxy]phenyl]-5-(4-fluorophenyl)-4-hydroxy-6-methylpyridine-3-carboxamide] |  |  | < 100 |  | < 100 | < 100 | < 100
COc1cc2nccc(Oc3ccc(NC(=O)c4cn(C(C)C)c(C)c(-c5ccc(F)cc5)c4=O)cc3F)c2nc1N [Compound 579, N-[4-[(6-Amino-7-methoxy-1,5-naphthyridin-4-yl)oxy]-3-fluorophenyl]-5-(4-fluorophenyl)-6-methyl-4-oxo-1-propan-2-ylpyridine-3-carboxamide] |  |  | < 100 |  | < 100 | > 300 | < 100
COc1cnc2c(Oc3ccc(NC(=O)c4cn(C(C)C)c(C)c(-c5ccc(F)cc5)c4=O)cc3F)ccnc2c1 [Compound 121, N-[3-Fluoro-4-[(7-methoxy-1,5-naphthyridin-4-yl)oxy]phenyl]-5-(4-fluorophenyl)-6-methyl-4-oxo-1-propan-2-ylpyridine-3-carboxamide] | < 100 | > 300 | < 100 | < 100 |  |  | 
COc1cc2nccc(Oc3ccc(NC(=O)c4cn(C(C)C)cc(-c5ccc(F)cc5)c4=O)cc3)c2nc1OC [Compound 122, N-[4-[(6,7-Dimethoxy-1,5-naphthyridin-4-yl)oxy]phenyl]-5-(4-fluorophenyl)-4-oxo-1-propan-2-ylpyridine-3-carboxamide] | < 100 | < 100 | < 100 | < 100 |  |  | 
Cc1nc(C)c(-c2ccc(F)cc2)c(O)c1C(=O)Nc1ccc(Oc2ccnc3cc(C(C)C)cnc23)c(F)c1 [Compound 595, 5-(4-Fluorophenyl)-N-[3-fluoro-4-[(7-propan-2-yl-1,5-naphthyridin-4-yl)oxy]phenyl]-4-hydroxy-2,6-dimethylpyridine-3-carboxamide] |  |  | < 100 |  | 100 to 300 | 100 to 300 | < 100
COc1cc2nccc(Oc3ccc(NC(=O)c4cn(CCO)c(C)c(-c5ccc(F)cc5)c4=O)cc3F)c2nc1OC [Compound 619, N-[4-[(6,7-Dimethoxy-1,5-naphthyridin-4-yl)oxy]-3-fluorophenyl]-5-(4-fluorophenyl)-1-(2-hydroxyethyl)-6-methyl-4-oxopyridine-3-carboxamide] |  |  | < 100 |  | < 100 | > 300 | < 100
CCn1cc(C(=O)Nc2ccc(Oc3ccnc4cc(OC)cnc34)cc2)c(=O)c(-c2ccc(F)cc2)c1 [Compound 169, 1-Ethyl-5-(4-fluorophenyl)-N-[4-[(7-methoxy-1,5-naphthyridin-4-yl)oxy]phenyl]-4-oxopyridine-3-carboxamide] | < 100 | > 300 | < 100 | < 100 |  |  | 
Cc1nc2c(Oc3ccc(NC(=O)c4cnc(C)c(-c5ccc(F)cc5)c4O)cc3F)ccnc2cc1-c1cnn(C(F)F)c1 [Compound 615, N-[4-[[7-[1-(Difluoromethyl)pyrazol-4-yl]-6-methyl-1,5-naphthyridin-4-yl]oxy]-3-fluorophenyl]-5-(4-fluorophenyl)-4-hydroxy-6-methylpyridine-3-carboxamide hydrochloride] |  |  | < 100 |  | < 100 | < 100 | < 100
Cc1ncc(C(=O)Nc2ccc(Oc3ccnc4cc(C(C)C)cnc34)cc2)c(O)c1-c1ccc(F)cc1 [Compound 594, 5-(4-Fluorophenyl)-4-hydroxy-6-methyl-N-[4-[(7-propan-2-yl-1,5-naphthyridin-4-yl)oxy]phenyl]pyridine-3-carboxamide] |  |  | < 100 |  | < 100 | > 300 | < 100
CCc1nc2c(Oc3ccc(NC(=O)c4cn(C(C)C)c(C)c(-c5ccc(F)cc5)c4=O)cc3F)ccnc2cc1OC [Compound 588, N-[4-[(6-Ethyl-7-methoxy-1,5-naphthyridin-4-yl)oxy]-3-fluorophenyl]-5-(4-fluorophenyl)-6-methyl-4-oxo-1-propan-2-ylpyridine-3-carboxamide] |  |  | < 100 |  | < 100 | > 300 | < 100
COc1cc2nccc(Oc3ccc(NC(=O)c4cnc(C)c(-c5ccc(F)cc5C)c4O)cc3)c2nc1OC [Compound 174, N-[4-[(6,7-Dimethoxy-1,5-naphthyridin-4-yl)oxy]phenyl]-5-(4-fluoro-2-methylphenyl)-4-hydroxy-6-methylpyridine-3-carboxamide] | < 100 | < 100 | < 100 | < 100 |  |  | 
COc1cnc2c(Oc3ccc(NC(=O)c4cn(C)c(C)c(-c5ccc(F)cc5)c4=O)cc3F)ccnc2c1 [Compound 156, N-[3-Fluoro-4-[(7-methoxy-1,5-naphthyridin-4-yl)oxy]phenyl]-5-(4-fluorophenyl)-1,6-dimethyl-4-oxopyridine-3-carboxamide] | < 100 | > 300 | < 100 | < 100 |  |  | 
